Assay results as given in ChEMBL document CHEMBL1201862, “PubChem BioAssay data set” (2004).
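Exposure lasted 48 hours, with cells grown in 96-well plates and compounds tested at five concentrations. Abbreviation: GI50, concentration required for 50% inhibition of growth.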 Active and inactive are the calls of the source. Rule as the data show it: active = GI50 up to about 1.1 µM and inactive = higher.

Columns and labels:
Test in all cases: growth of human tumour cells (NCI), 48 h
HT-29 = tested on: HT-29
A549 = tested on: A549
NCI-H522 = tested on: NCI-H522
IGROV-1 = tested on: IGROV-1
MDA-MB-435 = tested on: MDA-MB-435
HCT-15 = tested on: HCT-15
SN12C = tested on: SN12C
SK-MEL-28 = tested on: SK-MEL-28
MOLT-4 = tested on: MOLT-4
Malme-3M = tested on: Malme-3M
SW-620 = tested on: SW-620
DU-145 = tested on: DU-145
UACC-62 = tested on: UACC-62
U-251 = tested on: U-251
CCRF-CEM = tested on: CCRF-CEM
UACC-257 = tested on: UACC-257
NCI-H23 = tested on: NCI-H23

| SMILES | GI50 (HT-29) | GI50 (A549) | GI50 (NCI-H522) | GI50 (IGROV-1) | GI50 (MDA-MB-435) | GI50 (HCT-15) [µM] | GI50 (SN12C) | GI50 (SK-MEL-28) | GI50 (MOLT-4) | GI50 (Malme-3M) | GI50 (SW-620) | GI50 (DU-145) | GI50 (UACC-62) | GI50 (U-251) | GI50 (CCRF-CEM) | GI50 (UACC-257) | GI50 (NCI-H23) |
| --- | --- | --- | --- | --- | --- | --- | --- | --- | --- | --- | --- | --- | --- | --- | --- | --- | --- |
| CC(C)(CO)CNc1nc(N)nc(Cl)c1C=O | 45.2 µM (inactive) | 71.1 µM (inactive) | 7.67 µM (inactive) | 20.1 µM (inactive) | 25.9 µM (inactive) | 15.3 | 18.9 µM (inactive) | 24.4 µM (inactive) | 19.8 µM (inactive) | 39.7 µM (inactive) | 33.5 µM (inactive) | 94 µM (inactive) | 12.5 µM (inactive) | 32.8 µM (inactive) | 20.6 µM (inactive) | 35.4 µM (inactive) | 40.4 µM (inactive) |
| [O-]c1c[n+](CCCC[n+]2cc([O-])on2)no1 | > 100 µM (inactive) | > 100 µM (inactive) | > 100 µM (inactive) | > 100 µM (inactive) | > 100 µM (inactive) | > 100 | > 100 µM (inactive) | > 100 µM (inactive) | 22.8 µM (inactive) | > 100 µM (inactive) | > 100 µM (inactive) | > 100 µM (inactive) | > 100 µM (inactive) | > 100 µM (inactive) | > 100 µM (inactive) | > 100 µM (inactive) | > 100 µM (inactive) |
| O=C1c2cccc3cccc(c23)C2NCCCN12 (stereo not drawn) | > 100 µM (inactive) | > 100 µM (inactive) | 28.8 µM (inactive) | > 100 µM (inactive) | > 100 µM (inactive) | > 100 | > 100 µM (inactive) | > 100 µM (inactive) | 47.3 µM (inactive) | > 100 µM (inactive) | 94 µM (inactive) | > 100 µM (inactive) | > 100 µM (inactive) | > 100 µM (inactive) | 37.7 µM (inactive) | > 100 µM (inactive) | > 100 µM (inactive) |
| COC(=O)/C=C\C(C#N)(C#N)/N=C/c1ccc(C)s1 | 1.51 µM (inactive) | 18.4 µM (inactive) | 0.713 µM (active) | 2 µM (inactive) | 2.47 µM (inactive) | 1.67 | 2.29 µM (inactive) | 4.28 µM (inactive) | 0.955 µM (active) | 1.6 µM (inactive) | 0.668 µM (active) | 4.48 µM (inactive) | 15.2 µM (inactive) | 12.4 µM (inactive) | 0.0847 µM (active) | 2.73 µM (inactive) | 2.23 µM (inactive) |
| Cc1cc2c(c(O)c1-c1c(C)cc(O)c3c1C(=O)C=CC3=O)C(=O)C=CC2=O | 1.58 µM (inactive) | 17.7 µM (inactive) | 0.136 µM (active) | 2.26 µM (inactive) | 1.95 µM (inactive) | 1.52 | 2.37 µM (inactive) | 0.369 µM (active) | 0.0224 µM (active) | 0.342 µM (active) | 1.59 µM (inactive) | 2.19 µM (inactive) | 2.13 µM (inactive) | 4.03 µM (inactive) | < 0.01 µM (active) | 1.62 µM (inactive) | 3.05 µM (inactive) |
| COc1ccc(Cn2c(=O)c(OC)c(C)c3cc4ccccc4cc32)cc1 | 31.4 µM (inactive) | 34.4 µM (inactive) | 21.4 µM (inactive) | 21.4 µM (inactive) | 28.1 µM (inactive) | 27 | 19.8 µM (inactive) | 94.6 µM (inactive) | 11.8 µM (inactive) | 21.1 µM (inactive) | 32.5 µM (inactive) | 35.2 µM (inactive) | 13.2 µM (inactive) | 23 µM (inactive) | 23.3 µM (inactive) | 2.99 µM (inactive) | 22.3 µM (inactive) |
| COC1=C2CC(C)CC(OC)[C@@H](OC(=O)CCN)[C@H](C)/C=C(\C)C(OC(N)=O)C(OC)/C=C\C=C(/C)C(=O)NC(=CC1=O)C2=O (stereo partly drawn) | 0.465 µM (active) | 15.7 µM (inactive) | 0.255 µM (active) | 1.29 µM (inactive) | 0.802 µM (active) | 2.43 | 1.07 µM (active) | 0.689 µM (active) | 0.483 µM (active) | 0.735 µM (active) | 0.357 µM (active) | 8.57 µM (inactive) | 1.47 µM (inactive) | 2.34 µM (inactive) | 0.343 µM (active) | 1.43 µM (inactive) | 1.55 µM (inactive) |
| C=C[C@@]1(C)CC2CC[C@]3(C)C(C)=CC(=O)CC3[C@]2(C)CC1O (stereo partly drawn) | > 100 µM (inactive) | > 100 µM (inactive) | 32.7 µM (inactive) | > 100 µM (inactive) | > 100 µM (inactive) | > 100 | > 100 µM (inactive) | > 100 µM (inactive) | 83.2 µM (inactive) | > 100 µM (inactive) | > 100 µM (inactive) | > 100 µM (inactive) | > 100 µM (inactive) | > 100 µM (inactive) | 38.3 µM (inactive) | > 100 µM (inactive) | > 100 µM (inactive) |
| Oc1ccc(-c2nc3ccccc3s2)cc1 | 42.3 µM (inactive) | 41.3 µM (inactive) | 15.5 µM (inactive) | 25.7 µM (inactive) | 37.2 µM (inactive) | 36 | 38 µM (inactive) | 53.3 µM (inactive) | 25.8 µM (inactive) | 47.3 µM (inactive) | 65.5 µM (inactive) | 33.1 µM (inactive) | 32.4 µM (inactive) | 42.4 µM (inactive) | 26.2 µM (inactive) | 31 µM (inactive) | 25.2 µM (inactive) |
